Laboratory results from PMC6856805, “Environmental Risk Assessment for the Active Pharmaceutical Ingredient Mycophenolic Acid in European Surface Waters” (Environmental Toxicology and Chemistry, 2019).
Converted amounts (≈) assume the structure as drawn. “And” between values parts separate entries of the source, which are not always exact repeats. Equal entries are not always repeated. Where two headings read alike, the source gives them in different places.

Legend:
[1] = cited from earlier work; for k photo: ref Franquet‐Griell et al. (2017a)
[2] = tested on: humans; assay: Derivation of acceptable daily exposure (ADE); design: species or system human
Experimental: Similarly, potential risk for humans from secondary poisoning is assessed by using the acceptable daily exposure (ADE) value for MPA (T. Pfister, unpublished data), which considers toxicological data as well as human experience and covers all routes of uptake, including sensitive subpopulations, over 365 d/annum, with the combined worst‐case uptake through drinking water and fish. No removal of MPA in drinking water production is assumed, but a default intake of 2 L water and 115 g fish/person and day is assumed (European Commission 2011; Murray‐Smith et al. 2012). This combined uptake is then compared with the ADE.
The ADE was derived based on the available nonclinical and clinical data, with the critical effects identified as 1) immunosuppression and secondary effects thereof and 2) teratogenicity; in addition, the relevance of positive results in genotoxicity tests was assessed (T. Pfister, unpublished data). Based on the NOAEL of 2 mg/kg body weight/d in the 12‐mo oral toxicity study in the rat, an ADE was derived by multiplying this NOAEL by a default body weight of 60 kg for humans and dividing by adjustment factors, namely, 6.2 for extrapolation from rats to humans, 10 for variability between individuals, 1 for study duration of 1 yr for rodents, 5 for severity of systemic toxicity (hematopoiesis, immunotoxicity), and 3 for use of an established NOAEL instead of an NOEL; this derivation results in a first ADE of 0.1 mg MPM/60‐kg person/d. […] The weak clastogenic potential observed at higher doses was considered to be irrelevant at these exposure levels. Because the first ADE was lower than, and therefore also protective of, the second, 0.1 mg MPM/60‐kg person/d was selected as the ADE. Stoichiometrically, this ADE for MPM corresponds to 0.0739 mg MPA/d, which was rounded to 0.075 mg or 75 µg MPA/d. The MTDI for an otter was derived by normalizing the ADE for a 60‐kg human to the otter with a default body mass of 10 kg, resulting in an MTDI of 0.0125 mg or 12.5 µg MPA/10‐kg otter/d.

[3] = tested on: Daphnia magna; assay: OECD 211 chronic reproduction test; format: in vivo; conditions: GMMC
Experimental: An OECD 211 chronic reproduction test with the cladoceran Daphnia magna was performed by ECT Oekotoxikologie with a series of concentrations of MPA in daphnid test medium plus medium-only controls over 21 days (Egeler & Chambers 2018). The test medium was exchanged every 2–3 days, the daphnids were fed with live algae (Desmodesmus subspicatus) throughout the exposure. Fresh and old medium samples were analysed by LC–MS/MS (Supplemental Information) and the time-weighted mean measured concentrations (TWMMC) for the concentrations determined. Statistical data evaluation was performed using Williams's test, Fisher's Exact test, Multiple sequentially rejective U-test after Bonferroni-Holm and Probit analysis. The endpoints in this test were survival and size (length) of the parental daphnids at the end of the test; number of young daphnids released per surviving F0 mother; any malformations or undeveloped eggs; and the intrinsic rate of reproduction (IRR), which integrates both survival and reproduction, as a measure of longer-term stability (IRR ~1), growth (IRR >1) or decline (IRR <1) of a population.

[4] = Photodegradation in buffered aqueous solutions under natural sunlight; format: physicochemical
Experimental: In contrast, Franquet‐Griell et al. (2017a) reported MPA k photo values of 0.0284 min^–1 for UV‐C irradiation and 0.004 min^–1 in a Solar Box artificial sunlight reactor. […] Giebułtowicz and Nałęcz‐Jawecki (2016) presented a UV‐visual light spectrum of MPA in their Supporting Information with a λmax at 215 nm and 2 sequentially lower peaks at 248 and 297 nm, confirming UV‐C photosensitivity.
The photodegradation of MPA in buffered aqueous solutions at pH 5, 7 and 9 under natural sunlight was determined by Syntex, 'closely following the US FDA guideline' (Nicholson 1994)). MPA was used in solutions of 3.12×10^–5 M (= 10 mg/L); the pH 5 solution was buffered with 0.1 M sodium acetate, the pH 7 solution with 0.1 M monobasic sodium phosphate and the pH 9 solution with 0.1 M sodium borate buffer. As actinometers (reference photodegradants) p-nitroanisole at 1.00×10^–5 M was used, with 4.96×10^–3 M pyridine for pH 5, with 6.20×10^–3 M pyridine for pH 7 and with 9.93×10^–3 M pyridine for pH 9. In each of the seasonal studies, hermetically closed quartz tubes with either one of the MPA solutions or the corresponding actinometer solutions were exposed to natural sunlight in triplicate. Single control tubes containing either MPA solution or actinometer solution, both at different pHs, were wrapped in aluminium foil and covered in black plastic and exposed in parallel. The tubes were set up in Palo Alto, Ca, USA at 37° 25' N, in parallel on a board painted black, which was exposed on a stand pointing due […] at an angle of 30°. Data for the four seasonal experiments, with date, time of initiation and end, sampling intervals, weather, cloud cover and temperature, are given in the report. At each of several equivalent timepoints, one set of tubes was removed from sunlight, analysed by HPLC and compared with the respective dark control. The substance loss of p-nitroanisole, with known quantum yield, in the […] served to calibrate the loss of MPA in the test tubes and determine the photolytic rate constants kphoto and half-lives for MPA at different pH levels and insolations over the seasons.

[5] = Solubility in buffered aqueous solutions; format: physicochemical; conditions: buffered aqueous solution, 25 °C, aqueous buffer, read-out: Solubility in water
Excerpt: (§1) Syntex derived many basic physicochemical properties for both MPM and MPA in the early 1990s. The results for MPA are mostly given in the present study.

[6] = Derivation of predicted no-effect concentrations (PNEC) for STPs and surface water
Excerpt: The surface (fresh) water PNECSW was derived in 2 ways, from the lowest chronic NOEC on the one hand and from the lowest chronic 10% effect concentration (EC10) on the other, from (sub)chronic tests with fish, daphnids, green algae, and cyanobacteria (for the latter 2 the NOErC/ErC10 for growth rate [r] was used), using an assessment factor of 10 (Committee for Medicinal Products for Human Use 2015).

[7] = Screening vapor pressure; format: physicochemical
Excerpt: as §1
The vapour pressure of MPA was estimated by Syntex by comparing losses of MPA under a nitrogen stream with losses in capped vials and comparing the results with the same losses of a reference substance of known vapour pressure (Young & Licato 1994a).

Structure (SMILES): COc1c(C)c2c(c(O)c1CC=C(C)CCC(=O)O)C(=O)OC2 [MPA, 6‐(1,3‐dihydro‐4‐hydroxy‐6‐methoxy‐7‐methyl‐3‐oxo‐5‐isobenzofuranyl)‐4‐methyl‐4‐hexenoic acid]
- k photo ([1]; Solar Box artificial sunlight reactor): 0.004 min^–1
- k photo ([1]; UV‐C irradiation): 0.0284 min^–1
- UV-C photodegradation ([1]; pH 7, 20 mg/L MPA, ref Marín‐García (2015)): negligible photodegradation
- ADE, rounded [2]: 75 µg MPA/d
- ADE, stoichiometric [2]: 0.0739 mg MPA/d
- ADE, rounded ([2]; MPA/d): 0.075 mg
- EC10, fecundity and reproduction ([3]; 21 d): 0.929 µg/mL (≈ 2.9 µM)
- LOEC, fecundity and reproduction ([3]; 21 d): 1800 µg/L
- LOEC, length of parental daphnids ([3]; 21 d): 1800 µg/L
- NOEC, fecundity and reproduction ([3]; 21 d): 630 µg MPA/L
- NOEC, length of parental daphnids ([3]; 21 d): 630 µg/L
- LOEC, mortality/immobility of parental daphnids and intrinsic rate of population increase [3]: > 7530 µg/L
- overall EC10 for the daphnids [3]: 0.929 µg/mL
- overall NOEC for the daphnids [3]: 630 µg MPA/L
- NOEC, mortality/immobility of parental daphnids and intrinsic rate of population increase ([3]; highest tested concentration): 7530 µg MPA/L
- k photo ([4]; pH 5, summer): 0.0059 min^–1
- k photo ([4]; pH 5, winter): 0.0017 min^–1
- k photo ([4]; pH 7, summer): 0.018 min^–1
- k photo ([4]; pH 7, winter): 0.0049 min^–1
- k photo ([4]; pH 9, summer): 0.031 min^–1
- k photo ([4]; pH 9, winter): 0.0087 min^–1
- solubility ([5]; pH 5, 25 ± 2 °C): 45 µg/mL (≈ 140 µM)
- solubility ([5]; pH 7, 25 ± 2 °C): 710 µg/mL (≈ 2220 µM)
- PNECEC10 (aquatic) ([6]; fish EC10, assessment factor of 10): 0.58 µg MPA/L and 0.580 µg MPA/L
- PNECNOEC (aquatic) ([6]; fish NOEC, assessment factor of 10): 0.132 µg MPA/L
- Vapor pressure [7]: < 10^–6 hPa
